≈ marks a conversion by molar mass, not a printed value.
system: not listed separately; experiment: Kinetic solubility of the compound in pH 7.4 phosphate buffer; type: physicochemical; settings: read-out: Kinetic_solubility

solubility kinetic [µg/mL]	Structure (SMILES)
189 (≈ 429 µM)	N#Cc1c(NCCN2CCNCC2)sc(C(=O)c2ccc(Br)s2)c1N

target: T1, Maternal embryonic leucine zipper kinase (Homo sapiens, UniProt Q14680); experiment: Inhibition of recombinant human MELK expressed in Escherichia coli using ZIPtide as substrate measured after 0.5 hrs by ADP-Glo assay; settings: not given
Target sequence in this assay (Q14680 whole entry): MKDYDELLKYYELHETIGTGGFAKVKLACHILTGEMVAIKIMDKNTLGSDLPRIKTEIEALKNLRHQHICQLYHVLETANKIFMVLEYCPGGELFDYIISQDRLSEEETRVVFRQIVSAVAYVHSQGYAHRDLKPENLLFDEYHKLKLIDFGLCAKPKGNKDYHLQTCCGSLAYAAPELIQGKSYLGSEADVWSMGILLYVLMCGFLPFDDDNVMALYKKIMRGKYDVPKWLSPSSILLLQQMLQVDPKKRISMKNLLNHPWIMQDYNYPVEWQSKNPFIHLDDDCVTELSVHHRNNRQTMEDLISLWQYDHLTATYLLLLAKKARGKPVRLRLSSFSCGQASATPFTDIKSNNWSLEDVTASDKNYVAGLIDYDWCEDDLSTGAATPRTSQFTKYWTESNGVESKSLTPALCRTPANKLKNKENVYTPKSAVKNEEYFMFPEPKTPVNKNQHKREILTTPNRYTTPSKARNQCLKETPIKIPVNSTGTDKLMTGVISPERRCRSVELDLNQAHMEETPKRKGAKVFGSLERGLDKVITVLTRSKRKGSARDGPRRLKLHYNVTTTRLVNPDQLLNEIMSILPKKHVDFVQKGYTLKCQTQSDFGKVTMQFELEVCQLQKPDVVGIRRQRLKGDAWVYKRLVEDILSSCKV

IC50 [nM]	Structure (SMILES)
313	N#Cc1c(NCCO)sc(C(=O)c2ccc(Br)s2)c1N
4130	COc1ccc(C(=O)c2sc(NC(C)C)c(C#N)c2N)cc1
141	N#Cc1c(NCCCN)sc(C(=O)c2ccc(Br)s2)c1N
575	CC(C)Nc1sc(C(=O)c2cc(Cl)cs2)c(N)c1C#N
1770	COc1ccc(C(=O)c2sc(NC(C)C)c(C#N)c2N)cc1OC
> 5000	CC(C)Nc1sc(C(=O)c2ccncc2)c(N)c1C#N
1190	CCNc1sc(C(=O)c2cccs2)c(N)c1C#N
599	CC(C)Nc1sc(C(=O)c2cc(Br)cs2)c(N)c1C#N
494	Cc1ccc(C(=O)c2sc(NC(C)C)c(C#N)c2N)s1
> 5000	C=CCNc1sc(C(=O)C(C)(C)C)c(N)c1C#N
1350	CC(C)Nc1sc(C(=O)c2ccco2)c(N)c1C#N
540	N#Cc1c(NCC(N)=O)sc(C(=O)c2ccc(Br)s2)c1N
1120	CC(C)Nc1sc(C(=O)c2ccc3c(c2)OCO3)c(N)c1C#N
388	CC(C)Nc1sc(C(=O)c2ccc(Cl)s2)c(N)c1C(N)=O
222	CCNc1sc(C(=O)c2ccc(Cl)s2)c(N)c1C#N
112	CC(C)Nc1sc(C(=O)c2ccc(I)s2)c(N)c1C#N
> 5000	N#Cc1ccccc1Nc1sc(C(=O)c2ccc(Br)s2)c(N)c1C#N
241	CC(C)Nc1sc(C(=O)c2ccc(-c3ccc(O)cc3)s2)c(N)c1C#N

IC50 [nM]	Structure (SMILES)
638	C=CCNc1sc(C(=O)c2ccc(Cl)s2)c(N)c1C#N
> 5000	CC(C)Nc1sc(C(=O)c2cccnc2)c(N)c1C#N
269	CC(C)Nc1sc(C(=O)c2ccc(-c3ccncc3)s2)c(N)c1C#N
> 5000	COc1ccc(C(=O)c2sc3nc(C)ccc3c2N)cc1OC
> 5000	Cc1ccc(C(=O)c2sc3nc(C)ccc3c2N)cc1
> 5000	CC(C)Nc1sc(C(=O)c2ccc(Cl)s2)cc1C#N
> 5000	CC(C)Nc1nc(N)c(C(=O)c2ccc(Cl)s2)s1
> 5000	CC(C)Nc1sc(C(=O)c2ccc(C#N)cc2)c(N)c1C#N
350	CC(C)Nc1sc(C(=O)c2ccc(-c3cccc(O)c3)s2)c(N)c1C#N
707	N#Cc1c(Nc2ccccc2F)sc(C(=O)c2ccc(Cl)s2)c1N
1700	CC(C)Nc1sc(C(=O)c2ccn[nH]2)c(N)c1C#N
> 5000	N#Cc1c(NCc2ccccc2)sc(C(=O)c2ccc(Cl)s2)c1N
> 5000	CC(=O)c1sc(NC(C)C)c(C#N)c1N
1420	CC(C)N(C)c1sc(C(=O)c2ccc(Cl)s2)c(N)c1C#N
> 5000	CC(C)Nc1sc(C(=O)c2cccc(C#N)c2)c(N)c1C#N
98	N#Cc1c(NCCN2CCNCC2)sc(C(=O)c2ccc(Br)s2)c1N
122	CC(C)Nc1sc(C(=O)c2ccc(Br)s2)c(N)c1C#N

system: not listed separately; experiment: Lipophilicity, log P of the compound; type: physicochemical; settings: octanol/water

logP	Structure (SMILES)
3	N#Cc1c(NCCN2CCNCC2)sc(C(=O)c2ccc(Br)s2)c1N

system: not listed separately; experiment: Stability in mouse liver microsomes assessed as parent compound remaining after 1 hr; type: ADME, Microsome; settings: read-out: Stability

remaining at 1 h [%]	Structure (SMILES)
81	N#Cc1c(NCCN2CCNCC2)sc(C(=O)c2ccc(Br)s2)c1N

target: T1, Maternal embryonic leucine zipper kinase; experiment: Inhibition of recombinant human MELK expressed in Escherichia coli at 5 uM using ZIPtide as substrate measured after 0.5 hrs by ADP-Glo assay relative to control; settings: not given
Target sequence in this assay (Q14680 whole entry, looked up): as the sequence (Q14680 whole entry) above

inhibition [%]	Structure (SMILES)
49	Cc1ccc(C(=O)c2sc(NC(C)C)c(C#N)c2N)cc1
47	CC(C)Nc1sc(C(=O)c2ccccc2)c(N)c1C#N
46	CC(C)Nc1nc(N)c(C(=O)c2ccc(Cl)s2)s1
